In patent US7863446B2, “Heterocycles” (Orchid Research Laboratories Limited, priority 2006, dated 2011):

Assays:
TNF-α [1] = experiment: LPS induced sepsis for measurement of TNF-α inhibition in mice; assay type: in vivo; conditions: Mus musculus; TNF alpha inhibition in mice sepsis model
Procedure: LPS Induced Sepsis for Measurement of TNF-α Inhibition in Mice
The LPS induced sepsis model in mice was performed as described by Les sekut et al (J Lab Clin Med 1994; 124:813-20). Female Swiss albino mice were selected and the body weights were equivalent within each group. The mice were fasted for 20 hours with free access to water. The mice were dosed orally with the test compound suspended in vehicle containing 0.5% Tween 80 in 0.25% Carboxy-methylcellulose sodium salt. The control mice were administered the vehicle alone. After 30 minutes of oral dosing, mice were injected with 500 μg of Lipopolysaccharide (Escherichia coli, LPS: B4 from Siga) in phosphate buffer saline solution into the intraperitoneal cavity of the mice. After 90 minutes of LPS administration mice were bled via retro-orbital sinus puncture. Blood samples were stored overnight at 4° C. Serum samples were collected by centrifuging the samples at 4000 rpm for 15 minutes at 4° C. Immediately the serum samples were analysed for TNF-α levels using commercially available mouse TNF-α ELISA kit (Amersham Biosciences) and assay was performed by the manufacturer instruction.
ED50 Measurement of TNF alpha Inhibition in Mice Sepsis Model

TNF-α [2] = experiment: In vitro measurement of TNF-α in human PBMC (LPS stimulated); assay type: cell-based
Procedure, shortened: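 Healthy-volunteer PBMC (0.5 million/well) in RPMI were pre-incubated with compound 15 min at 37 °C. They were then stimulated with E. coli B4 LPS 1 μg/ml for 18 h at 37 °C, 5% CO2. TNF-α in culture medium was measured by ELISA.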

Female Balb C = experiment: Psoriasis model (oxazolone induced dermatitis in mice); assay type: in vivo; conditions: topical on the ear, 24 hours after oxazolone
Procedure: Inhibitory Activity in Psoriasis Model
Oxazolone induced dermatitis in mice was performed as described in the literature. Female Balb C were selected in the age of 6-7 weeks for the study and 20-25 g. Mice were sensitized with oxazolone (15%) from Day 1 to day 6 by applying it on the shaved abdomen. Elicitation was done with oxazolone (2%) on the ear on day 7. Test compounds were applied topically on the ear 15 minutes and 6 hours post oxazolone application on day 7. 24 hours after oxazolone application, ear thickness is measured and ear were excised under anesthesia and weighed.

Male Balbc mice = experiment: IBD-DSS model (DSS induced colitis); assay type: in vivo; conditions: Day 1 to 6, mice
Procedure: Inhibitory Activity in IBD-DSS Model
DSS Induced colitis test was performed as described by Axelsson et al., 1998. Male Balbc mice were selected in the age of 7-8 weeks for the study. Colitis in mice was induced by providing DSS (2%) in the drinking water from day 1 to 6. Mice were dosed from Day 1 to 6 with test compound suspended in vehicle containing 0.25% carboxymethyl cellulose and 0.5% Tween 80. The control animals received vehicle alone. Body weight and disease activity index was recorded daily during the experiment. After 6 days of treatment, animals were sacrificed; colon weight and colon length was recorded.

NS(=O)(=O)c1cccc(-c2c(-c3ccc(F)cc3)nc(C(F)(F)F)nc2-n2ccnc2)c1 [Example 80, 3-[4-(4-Fluorophenyl)-6-(1H-imidazol-1-yl)-2-(trifluoromethyl)pyrimidin-5-yl]benzenesulfonamide]
ED50 (TNF-α [1]): 2.13 mg/kg | inhibition at 1 µM (TNF-α [2]; 1 μM, NA = No activity, read-out: TNF-α Inhibition (%) at Conc. (1 μM)): 30% | inhibition at 10 µM (TNF-α [2]; 10 μM, read-out: TNF-α Inhibition (%) at Conc. (10 μM)): 75.3% | Psoriasis-acute-Oxazolone induced dermatitis % inhibition Ear Thick (Female Balb C): 19.2% | Psoriasis-acute-Oxazolone induced dermatitis % inhibition Ear Wt (Female Balb C): 18.9% | IBD-DSS Model % Inhibition of DAI at 50 mg/kg (Male Balbc mice): 35.94%
